{"source": "patent US9340569B2", "about": "“Methods and compositions for inhibiting clostridium difficile spore germination and outgrowth” (priority 2008, dated 2016)", "key": {"C. perfringens SM101": {"tested_on": "C. perfringens SM101", "format": "cell-based, Clostridium perfringens"}, "vegetative C. difficile": {"tested_on": "vegetative C. difficile", "format": "cell-based, Clostridium difficile"}, "C. difficile spores [1]": {"tested_on": "C. difficile spores"}, "[2]": {"conditions": "rat, in vivo; cited from earlier work"}, "C. difficile spores [3]": {"tested_on": "C. difficile spores", "test": "Inhibition of taurocholate-induced C. difficile spore germination, Ki from Lineweaver-Burk plot", "format": "cell-based, Clostridium difficile", "conditions": "for Inhibits Germination?: BHIS with 2-50 mM taurocholate plus inhibitor, OD600; for Ki: binding constant of inhibitor for the spore, competition with taurocholate"}, "C. difficile spores [4]": {"tested_on": "C. difficile spores", "format": "cell-based, Clostridium difficile"}, "C. difficile spores [5]": {"tested_on": "C. difficile spores", "format": "cell-based, Clostridium difficile", "remark": "listed apart in the source"}, "[6]": {"conditions": "in vivo; cited from earlier work"}}, "note": "Entries after “also recorded” stand apart in the source; their conditions may differ. Where a name gives a salt, the structure may show the parent alone. Read-outs that look alike come from different tables or passages of the source."}
{"smiles": "C[C@H](CCC(=O)O)[C@H]1CC[C@H]2[C@@H]3[C@H](O)C[C@@H]4C[C@H](O)CC[C@]4(C)[C@H]3CC[C@]12C", "note": "[CDCA, chenodeoxycholate]", "values": [{"measurement": "growth of vegetative C. perfringens", "setting": "C. perfringens SM101", "result": "unable to grow; also recorded: inhibited the growth"}, {"measurement": "growth of vegetative C. difficile", "setting": "vegetative C. difficile", "result": "unable to grow; also recorded: inhibited the growth"}, {"measurement": "inhibition of vegetative growth of C. difficile, general statement", "setting": "vegetative C. difficile", "result": "capable of inhibiting the vegetative growth"}, {"measurement": "colony formation after transient exposure, in words", "setting": "C. difficile spores [1]", "result": "did not induce colony formation"}, {"measurement": "inhibition of colony formation in response to cholate", "setting": "C. difficile spores [1]", "result": "inhibited colony formation"}, {"measurement": "inhibition of colony formation in response to taurocholate", "setting": "C. difficile spores [1]", "result": "inhibited colony formation"}]}
{"smiles": "C[C@H](CCC(=O)NCCS(=O)(=O)O)[C@H]1CC[C@H]2[C@@H]3[C@@H](O)C[C@@H]4C[C@H](O)CC[C@]4(C)[C@H]3CC[C@]12C", "note": "[tauroursodeoxycholate]", "values": [{"measurement": "deconjugation", "setting": "[2]", "result": 100, "unit": "%"}]}
{"smiles": "COC(=O)CC[C@@H](C)[C@H]1CC[C@H]2[C@@H]3[C@H](OC(C)=O)C[C@@H]4C[C@H](OC(C)=O)CC[C@]4(C)[C@H]3CC[C@]12C", "note": "[5β-cholanic acid-3α,7α-diol diacetate methyl ester]", "values": [{"measurement": "affinity for C. difficile spores relative to chenodeoxycholate", "setting": "C. difficile spores [3]", "result": "7-8 times"}, {"measurement": "potency as inhibitor of spore germination relative to chenodeoxycholate", "setting": "C. difficile spores [3]", "result": "approximately ten times more potent"}, {"measurement": "Inhibits Germination?", "setting": "C. difficile spores [3]", "result": "Yes"}, {"measurement": "Ki", "setting": "C. difficile spores [3]", "result": 40, "unit": "µM"}]}
{"smiles": "C[C@H](CCC(=O)O)[C@H]1CC[C@H]2[C@@H]3[C@H](O)C[C@@H]4C[C@H](O)CC[C@]4(C)[C@H]3C[C@H](O)[C@]12C", "note": "[CA, cholate]", "values": [{"measurement": "growth of vegetative C. perfringens", "setting": "C. perfringens SM101", "result": "able to grow, however, to wild-type levels"}, {"measurement": "growth of vegetative C. difficile", "setting": "vegetative C. difficile", "result": "able to grow"}, {"measurement": "germination (decrease in optical density) in BHIS", "setting": "C. difficile spores [4]", "result": "did not result in any significant decrease in the optical density"}, {"measurement": "colony formation by spores, in words", "setting": "C. difficile spores [5]", "result": "stimulated efficient colony formation"}]}
{"smiles": "COC(=O)CC[C@@H](C)[C@H]1CC[C@H]2[C@@H]3[C@H](O)C[C@@H]4C[C@H](OC(C)=O)CC[C@]4(C)[C@H]3CC[C@]12C", "note": "[5β-cholanic acid-3α,7α-diol 3-acetate methyl ester]", "values": [{"measurement": "Inhibits Germination?", "setting": "C. difficile spores [3]", "result": "Yes"}, {"measurement": "Ki", "setting": "C. difficile spores [3]", "result": 40, "unit": "µM"}]}
{"smiles": "C[C@H](CCC(=O)O)[C@H]1CC[C@H]2[C@@H]3[C@@H](O)C[C@@H]4C[C@H](O)CC[C@]4(C)[C@H]3CC[C@]12C", "note": "[UA, ursodeoxycholate]", "values": [{"measurement": "inhibition of vegetative growth of C. difficile, general statement", "setting": "vegetative C. difficile", "result": "capable of inhibiting the vegetative growth"}]}
{"smiles": "COC(=O)CC[C@@H](C)[C@H]1CC[C@H]2[C@@H]3C[C@@H](O)[C@@H]4C[C@H](O)CC[C@]4(C)[C@H]3CC[C@]12C", "note": "[5β-cholanic acid 3α,6β diol methyl ester]", "values": [{"measurement": "Inhibits Germination?", "setting": "C. difficile spores [3]", "result": "Yes"}, {"measurement": "Ki", "setting": "C. difficile spores [3]", "result": 48, "unit": "µM"}]}
{"smiles": "C[C@H](CCC(=O)O)[C@H]1CC[C@H]2[C@@H]3CC[C@@H]4C[C@H](O)CC[C@]4(C)[C@H]3C[C@H](O)[C@]12C", "note": "[DCA, deoxycholate]", "values": [{"measurement": "growth of vegetative C. perfringens", "setting": "C. perfringens SM101", "result": "neither C. difficile nor C. perfringens grew"}, {"measurement": "growth of vegetative C. difficile", "setting": "vegetative C. difficile", "result": "neither C. difficile nor C. perfringens grew"}, {"measurement": "germination (decrease in optical density) in BHIS", "setting": "C. difficile spores [4]", "result": "small drop in OD600 that after 60 min was not significantly more than the change in OD of spores in BHIS alone"}, {"measurement": "colony formation after transient exposure, in words", "setting": "C. difficile spores [1]", "result": "indistinguishable from that of spores incubated with taurocholate"}]}
{"smiles": "CC(CCC(=O)O)C1CCC2C3CC(=O)C4CC(O)CCC4(C)C3CCC12C", "note": "(stereo not shown) [6-ketolithocholate]", "values": [{"measurement": "Inhibits Germination?", "setting": "C. difficile spores [3]", "result": "Yes"}, {"measurement": "Ki", "setting": "C. difficile spores [3]", "result": 200, "unit": "µM"}]}
{"smiles": "CCN(CCS(=O)(=O)O)C(=O)CC[C@@H](C)[C@H]1CC[C@H]2[C@@H]3[C@@H](O)C[C@@H]4C[C@H](O)CC[C@]4(C)[C@H]3CC[C@]12C", "note": "[N-ethyl-tauroursodeoxycholate]", "values": [{"measurement": "deconjugation", "setting": "[2]", "result": "3.4+/−2.1%"}]}
{"smiles": "C[C@H](CCC(=O)N(C)CC(=O)O)[C@H]1CC[C@H]2[C@@H]3[C@H](O)C[C@@H]4C[C@H](O)CC[C@]4(C)[C@H]3C[C@H](O)[C@]12C", "note": "[cholylsarcosine]", "values": [{"measurement": "resistance to deconjugation", "setting": "[6]", "result": "resistant to deconjugation"}]}
{"smiles": "NCC(=O)O", "note": "[glycine]", "values": [{"measurement": "cogermination in buffer (OD600)", "setting": "C. difficile spores [4]", "result": "germinated in the presence of taurocholate but not in its absence"}, {"measurement": "germination (optical density), glycine plus taurocholate", "setting": "C. difficile spores [4]", "result": "the efficiency of germination was enhanced"}, {"measurement": "germination (optical density), single agent", "setting": "C. difficile spores [4]", "result": "a small decrease in the optical density"}]}
{"smiles": "CC(=O)O[C@@H]1CC[C@@]2(C)[C@H](CC[C@@H]3[C@@H]2CC[C@]2(C)[C@@H]([C@H](C)CCC(=O)O)CC[C@@H]32)C1", "note": "[5β-cholanic acid 3α-ol-acetate]", "values": [{"measurement": "Inhibits Germination?", "setting": "C. difficile spores [3]", "result": "No"}]}
{"smiles": "C[C@H](CCC(=O)NCCS(=O)(=O)O)[C@H]1CC[C@H]2[C@@H]3[C@H](O)C[C@@H]4C[C@H](O)CC[C@]4(C)[C@H]3CC[C@]12C", "note": "[Taurochenodeoxycholate, 5β-cholanic acid-3α,7α-diol n-(2-sulphoethyl)-amide sodium salt]", "values": [{"measurement": "Inhibits Germination?", "setting": "C. difficile spores [3]; listed as taurochenodeoxycholate, sodium salt", "result": "neither 5β-cholanic acid 3α-ol-acetate nor taurochenodeoxycholate was observed to inhibit"}, {"measurement": "Inhibits Germination?", "setting": "C. difficile spores [3]; sodium salt", "result": "No"}]}
{"smiles": "COC(=O)CC[C@@H](C)[C@H]1CC[C@H]2[C@@H]3[C@H](O)C[C@@H]4C[C@H](O)CC[C@]4(C)[C@H]3CC[C@]12C", "note": "[5β-cholanic acid 3α,7α diol methyl ester, 5β-cholanic acid-3α,7α-diol methyl ester]", "values": [{"measurement": "Inhibits Germination?", "setting": "C. difficile spores [3]", "result": "Yes"}, {"measurement": "Ki", "setting": "C. difficile spores [3]", "result": 22, "unit": "µM"}]}
{"smiles": "C[C@H](CCC(=O)NCC(=O)O)[C@H]1CC[C@H]2[C@@H]3[C@H](O)C[C@@H]4C[C@H](O)CC[C@]4(C)[C@H]3C[C@H](O)[C@]12C", "note": "[GA, glycocholate]", "values": [{"measurement": "growth of vegetative C. perfringens", "setting": "C. perfringens SM101; BHIS containing 0.1% bile salt", "result": "able to grow, however, to wild-type levels"}, {"measurement": "growth of vegetative C. difficile", "setting": "vegetative C. difficile", "result": "able to grow"}, {"measurement": "germination (decrease in optical density) in BHIS", "setting": "C. difficile spores [4]", "result": "did not result in any significant decrease in the optical density"}, {"measurement": "colony formation by spores, in words", "setting": "C. difficile spores [5]", "result": "stimulated efficient colony formation"}]}
